Measured values reported in patent publication US7915293B2, “Ubiquitin ligase inhibitors” (Rigel Pharmaceuticals, Inc., priority 2003, dated 2011).

Columns and labels:
Design in all cases: key: “+” indicates that the compound exibits inhibitory activity; “−” indicates that low or no inhibitory activity was observed
[1] = target: E3 (His-APC11/APC2-"APC") (Homo sapiens, UniProt Q9NYG5+Q9UJX6); assay: Plate-based E3 ligase assay (APC FLAG), auto-ubiquitination; assay type: biochemical; details: 8 concentrations tested
E3 (His-APC11/APC2-"APC"), sequence (Q9NYG5 whole entry): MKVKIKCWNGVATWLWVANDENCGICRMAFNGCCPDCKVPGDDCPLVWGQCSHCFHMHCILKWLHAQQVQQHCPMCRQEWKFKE
E3 (His-APC11/APC2-"APC"), sequence (Q9UJX6 whole entry): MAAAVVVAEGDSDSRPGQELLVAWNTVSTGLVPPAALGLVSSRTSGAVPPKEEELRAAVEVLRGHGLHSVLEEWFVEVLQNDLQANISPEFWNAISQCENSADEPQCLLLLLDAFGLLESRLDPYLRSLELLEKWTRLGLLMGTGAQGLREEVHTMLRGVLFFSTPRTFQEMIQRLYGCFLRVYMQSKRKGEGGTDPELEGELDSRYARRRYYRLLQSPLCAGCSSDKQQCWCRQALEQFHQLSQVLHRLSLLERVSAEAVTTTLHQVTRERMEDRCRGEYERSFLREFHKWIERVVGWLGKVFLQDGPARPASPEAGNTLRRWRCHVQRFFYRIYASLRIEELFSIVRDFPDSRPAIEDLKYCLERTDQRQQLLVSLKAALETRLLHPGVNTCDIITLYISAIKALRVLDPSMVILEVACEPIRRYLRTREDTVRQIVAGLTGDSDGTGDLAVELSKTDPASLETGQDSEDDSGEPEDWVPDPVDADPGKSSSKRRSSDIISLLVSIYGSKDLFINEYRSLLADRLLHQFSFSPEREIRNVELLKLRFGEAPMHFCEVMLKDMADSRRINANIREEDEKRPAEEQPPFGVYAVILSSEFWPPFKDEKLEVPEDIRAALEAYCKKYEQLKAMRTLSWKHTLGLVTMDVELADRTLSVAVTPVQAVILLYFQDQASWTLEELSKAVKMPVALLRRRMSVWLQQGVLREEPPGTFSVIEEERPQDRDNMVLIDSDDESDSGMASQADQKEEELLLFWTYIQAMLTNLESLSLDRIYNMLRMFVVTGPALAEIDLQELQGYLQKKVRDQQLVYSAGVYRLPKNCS
Summary of the method: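 His-APC11/APC2 auto-ubiquitination was run in casein-blocked nickel plates for 1 h at room temperature, with E1 at 5 ng/well, UbcH5c at 20 ng/well and APC at 100 ng/well. Buffer was 62.5 mM Tris pH 7.6, 3 mM MgCl2, 1 mM DTT, 2.5 mM ATP and Flag-ubiquitin at 100 ng/well. Detection used anti-Flag/HRP chemiluminescence, and IC50 was typically from 6 or 8 concentrations versus a DMSO control.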

A549 cells [2] = assay: Cell proliferation assay, photographic image analysis of proliferation, apoptosis and death (PAD assay), A549; assay type: cell-based; details: 6 concentrations tested
Summary of the method: (§1)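 Cells grown in RPMI with 5% FBS (2,000/well) and dosed 24 h after plating with 6.3-fold dilutions in duplicate (master plate 500× final, top 10 mM stock). After 48 h at 37 °C, cells formamide-fixed and DAPI-stained. Image analysis counted live, apoptotic and dead cells.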

HeLa cells [3] = assay: Non-photographic proliferation analysis (Promega Cell titer Aqueous), HeLa; assay type: cell-based; details: 6 concentrations tested
Protocol: (§2) A549 (ATCC# CCL-185), HeLa (ATCC# CCL-2), HCT116 (ATCC# CCL-247), and H1299 (ATCC# CRL-5803) cells were maintained in T175 flasks following the ATCC recommended media and handling procedures. Flasks reaching approximately 70% confluency were trypsinized and resuspended in RPMI media (Cell-Gro catalog number 10-040-CM) modified to contain 5% FBS, 100 ug/mlPen/Strep (Cell-Gro catalog number 30-002-CL), and 0.3 mg/ml L-Glutamine (Cell-Gro catalog number 25-003-CL). A 20,000 cells/ml solution was made for plating. Cells were plated in black Packard 96 well plates by placing 100 μl per well (2,000 cells per well).
(§3) Compounds and additional media were added 24 hours after cell plating. A compound master plate was created with concentrations 500 times greater than the final concentration added to the cells. All compound testing was done in duplicate using 6.3 fold dilutions starting with 10 mM. All outside wells (and 4 internal wells) were DMSO controls. Taxol and at least one additional control were run on all plates. Three microliters of the compound master plate were added to deep well blocks containing 750 μl of RPMI media. One hundred microliters were transferred from the compound/media deep well blocks to the plated cells resulting in a 500 fold dilution of the compounds. Cells were grown at 37° C., 5% CO2 for 48 hours.
(§4) Some cell plates were treated with Promega Cell titer Aqueous 1 kit (promega—VWR catalog number G3580). In this case, 48 hours after the test compound were added, 100 μl of media were removed and 20 μl of cell titer reagent were added to all wells. Plates were incubated at 37° C. for 45 minutes prior to absorbance reads on the Wallac plate reader at 490 nm for 0.1 sec/well.

A549 cells [4] = assay: Non-photographic proliferation analysis (Promega Cell titer Aqueous), A549; assay type: cell-based; details: 6 concentrations tested
Protocol: as §2, §3, §4

HeLa cells [5] = assay: Cell proliferation assay, photographic image analysis of proliferation, apoptosis and death (PAD assay), HeLa; assay type: cell-based; details: 6 concentrations tested
Summary of the method: as §1

HCT116 cells [6] = assay: Non-photographic proliferation analysis (Promega Cell titer Aqueous), HCT116; assay type: cell-based; details: 6 concentrations tested
Protocol: as §2, §3, §4

HCT116 cells [7] = assay: Cell proliferation assay, photographic image analysis of proliferation, apoptosis and death (PAD assay), HCT116; assay type: cell-based; details: 6 concentrations tested
Protocol: as §2, §3
Cells to be analyzed by photography were fixed and stained. One hundred microliters of media were removed and 100 μl of 9.3% […] was added to each well. Plates were left on the benchtop for 45 minutes. A staining solution containing 1.55 μl of 1 mg/ml DAPI added to 18.75 ml PBS was warmed for 15 minutes at 37° C. The cells were aspirated prior to washing with 100 μl of PBS. Seventy microliters of PBS were aspirated and 170 μl of the DAPI solution were added to each well of fixed cells. Plates were left at room temperature for one hour then aspirated and washed twice with 100 μl of PBS. The stained cells were left at 4° C. for a minimum of 16 hours before photographic analysis with Array Scan II (Cellomics). Analysis of the photographic images to determine numbers of live cells (proliferation), apoptotic cells and dead cells, were according to the methods described in U.S. Provisional Patent Application Ser. No. 60/406,714, which incorporated herein in its entirety.

Compound: Cc1cccc(C)c1NS(=O)(=O)c1cc(Cl)c(Oc2ccc([N+](=O)[O-])cc2Cl)c(Cl)c1 [Example 146, 3,5-dichloro-4-(2-chloro-4-nitrophenoxy)-N-(2,6-dimethylphenyl)benzenesulfonamide]
- APC Flag 8 pt [1]: +
- PAD Assay, A549 6 pt (A549 cells [2]): +
- Cell Titer-Aqueous, HELA 6 pt (HeLa cells [3]): +
- Cell Titer-Aqueous, A549 6 pt (A549 cells [4]): +
- PAD Assay, HELA 6 pt (HeLa cells [5]): +
- Cell Titer-Aqueous, HCT116 6 pt (HCT116 cells [6]): +

Compound: O=[N+]([O-])c1ccc(Oc2c(Cl)cc(S(=O)(=O)Nc3ccccc3C(F)(F)F)cc2Cl)c(Cl)c1 [Example 230, 3,5-dichloro-4-(2-chloro-4-nitrophenoxy)-N-[2-(trifluoromethyl)phenyl]benzene-sulfonamide]
- APC Flag 8 pt [1]: +
- PAD Assay, A549 6 pt (A549 cells [2]): +
- PAD Assay, HELA 6 pt (HeLa cells [5]): +
- PAD Assay, HCT116 6 pt (HCT116 cells [7]): +

Compound: CC1CCCC(C)N1S(=O)(=O)c1cc(Cl)c(Oc2ccc([N+](=O)[O-])cc2Cl)c(Cl)c1 (centres unmarked) [Example 140, 1-{[3,5-dichloro-4-(2-chloro-4-nitrophenoxy)phenyl]sulfonyl}-2,6-dimethylpiperidine]
- APC Flag 8 pt [1]: +
- Cell Titer-Aqueous, HELA 6 pt (HeLa cells [3]): −
- Cell Titer-Aqueous, A549 6 pt (A549 cells [4]): −
- Cell Titer-Aqueous, HCT116 6 pt (HCT116 cells [6]): −

Compound: O=S(=O)(Nc1ccc(C(F)(F)F)cc1Cl)c1ccc(Oc2ncc(C(F)(F)F)cc2Cl)cc1 [Example 255, N-[2-chloro-4-(trifluoromethyl)phenyl]-4-{[3-chloro-5-(trifluoromethyl)pyridin-2-yl]oxy}benzenesulfonamide]
- APC Flag 8 pt [1]: +
- PAD Assay, A549 6 pt (A549 cells [2]): +
- PAD Assay, HELA 6 pt (HeLa cells [5]): +
- PAD Assay, HCT116 6 pt (HCT116 cells [7]): +

Compound: O=[N+]([O-])c1ccc(Oc2c(Cl)cc(S(=O)(=O)Nc3ccccc3-n3cccc3)cc2Cl)c(Cl)c1 [Example 285, 3,5-dichloro-4-(2-chloro-4-nitrophenoxy)-N-[2-(1H-pyRRol-1-yl)phenyl]benzene-sulfonamide]
- APC Flag 8 pt [1]: +
- PAD Assay, A549 6 pt (A549 cells [2]): +
- PAD Assay, HELA 6 pt (HeLa cells [5]): +
- PAD Assay, HCT116 6 pt (HCT116 cells [7]): +

Compound: N=C(NS(=O)(=O)c1cc(Cl)c(Oc2ccc([N+](=O)[O-])cc2)c(Cl)c1)c1ccncc1 [Example 62, N-{[3,5-dichloro-4-(4-nitrophenoxy)phenyl]sulfonyl}pyridine-4-carboximidamide]
- APC Flag 8 pt [1]: −
- PAD Assay, A549 6 pt (A549 cells [2]): +
- Cell Titer-Aqueous, HELA 6 pt (HeLa cells [3]): +
- Cell Titer-Aqueous, A549 6 pt (A549 cells [4]): +
- PAD Assay, HELA 6 pt (HeLa cells [5]): +
- Cell Titer-Aqueous, HCT116 6 pt (HCT116 cells [6]): +

Compound: O=[N+]([O-])c1ccc(Oc2c(Cl)cc(S(=O)(=O)Nc3ccc(F)cc3I)cc2Cl)c(Cl)c1 [Example 226, 3,5-dichloro-4-(2-chloro-4-nitrophenoxy)-N-(4-fluoro-2-iodophenyl)benzenesulfonamide]
- APC Flag 8 pt [1]: +
- PAD Assay, A549 6 pt (A549 cells [2]): +
- PAD Assay, HELA 6 pt (HeLa cells [5]): +
- PAD Assay, HCT116 6 pt (HCT116 cells [7]): +

Compound: Cc1ccc(NS(=O)(=O)c2cc(Cl)c(Oc3ccc([N+](=O)[O-])cc3Cl)c(Cl)c2)c(Cl)c1 [Example 251, 3,5-dichloro-N-(2-chloro-4-methylphenyl)-4-(2-chloro-4-nitrophenoxy)benzene-sulfonamide]
- APC Flag 8 pt [1]: +
- PAD Assay, A549 6 pt (A549 cells [2]): +
- PAD Assay, HELA 6 pt (HeLa cells [5]): +
- PAD Assay, HCT116 6 pt (HCT116 cells [7]): +

Compound: CS/C(=N\S(=O)(=O)c1cc(Cl)c(Oc2ccc([N+](=O)[O-])cc2Cl)c(Cl)c1)Nc1ccc(Cl)cc1 [Example 149, methyl N-(4-chlorophenyl)-N′-{[3,5-dichloro-4-(2-chloro-4-nitrophenoxy)phenyl]sulfonyl} imidothiocarbamate]
- APC Flag 8 pt [1]: +
- PAD Assay, A549 6 pt (A549 cells [2]): +
- Cell Titer-Aqueous, HELA 6 pt (HeLa cells [3]): +
- Cell Titer-Aqueous, A549 6 pt (A549 cells [4]): +
- PAD Assay, HELA 6 pt (HeLa cells [5]): +
- Cell Titer-Aqueous, HCT116 6 pt (HCT116 cells [6]): +

Compound: O=[N+]([O-])c1ccc(Oc2c(Cl)cc(S(=O)(=O)Nc3cccc4cccnc34)cc2Cl)c(Cl)c1 [Example 219, 3,5-dichloro-4-(2-chloro-4-nitrophenoxy)-N-quinolin-8-ylbenzenesulfonamide]
- APC Flag 8 pt [1]: +
- PAD Assay, A549 6 pt (A549 cells [2]): +
- Cell Titer-Aqueous, HELA 6 pt (HeLa cells [3]): +
- Cell Titer-Aqueous, A549 6 pt (A549 cells [4]): +
- PAD Assay, HELA 6 pt (HeLa cells [5]): +
- PAD Assay, HCT116 6 pt (HCT116 cells [7]): +

Compound: O=[N+]([O-])c1ccc(Oc2c(Cl)cc(S(=O)(=O)Nc3ccc(F)c(Cl)c3)cc2Cl)c(Cl)c1 [Example 16, 3,5-dichloro-N-(3-chloro-4-fluorophenyl)-4-(2-chloro-4-nitrophenoxy)benzene-sulfonamide]
- APC Flag 8 pt [1]: +
- PAD Assay, A549 6 pt (A549 cells [2]): −
- Cell Titer-Aqueous, HELA 6 pt (HeLa cells [3]): +
- Cell Titer-Aqueous, A549 6 pt (A549 cells [4]): +
- Cell Titer-Aqueous, HCT116 6 pt (HCT116 cells [6]): +

Compound: O=[N+]([O-])c1ccc(Oc2c(Cl)cc(S(=O)(=O)Nc3ccc4[nH]ccc4c3)cc2Cl)c(Cl)c1 [Example 174, 3,5-dichloro-4-(2-chloro-4-nitrophenoxy)-N-1H-indol-5-ylbenzenesulfonamide]
- APC Flag 8 pt [1]: +
- PAD Assay, A549 6 pt (A549 cells [2]): +
- Cell Titer-Aqueous, HELA 6 pt (HeLa cells [3]): +
- Cell Titer-Aqueous, A549 6 pt (A549 cells [4]): +
- PAD Assay, HELA 6 pt (HeLa cells [5]): +

Compound: COc1ccc(NS(=O)(=O)c2cc(Cl)c(Oc3ccc([N+](=O)[O-])cc3Cl)c(Cl)c2)cc1Cl [Example 201, 3,5-dichloro-N-(3-chloro-4-methoxyphenyl)-4-(2-chloro-4-nitrophenoxy)benzene-sulfonamide]
- APC Flag 8 pt [1]: +
- PAD Assay, A549 6 pt (A549 cells [2]): +
- Cell Titer-Aqueous, HELA 6 pt (HeLa cells [3]): +
- Cell Titer-Aqueous, A549 6 pt (A549 cells [4]): +
- PAD Assay, HELA 6 pt (HeLa cells [5]): +

Compound: Cc1cccc(C(C)C)c1NS(=O)(=O)c1cc(Cl)c(Oc2ccc([N+](=O)[O-])cc2Cl)c(Cl)c1 [Example 160, 3,5-dichloro-4-(2-chloro-4-nitrophenoxy)-N-(2-isopropyl-6-methylphenyl)benzene-sulfonamide]
- APC Flag 8 pt [1]: +
- PAD Assay, A549 6 pt (A549 cells [2]): +
- Cell Titer-Aqueous, HELA 6 pt (HeLa cells [3]): +
- Cell Titer-Aqueous, A549 6 pt (A549 cells [4]): +
- PAD Assay, HELA 6 pt (HeLa cells [5]): +

Compound: Cc1cccc(C)c1N(S(=O)(=O)c1cc(Cl)c(Oc2ccc([N+](=O)[O-])cc2Cl)c(Cl)c1)S(=O)(=O)c1cc(Cl)c(Oc2ccc([N+](=O)[O-])cc2Cl)c(Cl)c1 [Example 145, 3,5-dichloro-4-(2-chloro-4-nitrophenoxy)-N-(2,6-dimethylphenyl)-N-(1,3-dichloro-2-(2-chloro-4-nitrophenoxy)5-sulfonylbenzene)benzenesulfonamide]
- APC Flag 8 pt [1]: +
- Cell Titer-Aqueous, HELA 6 pt (HeLa cells [3]): −
- Cell Titer-Aqueous, A549 6 pt (A549 cells [4]): −
- Cell Titer-Aqueous, HCT116 6 pt (HCT116 cells [6]): −

Compound: O=[N+]([O-])c1ccc(Oc2c(Cl)cc(S(=O)(=O)Nc3cccc4cc[nH]c34)cc2Cl)c(Cl)c1 [Example 168, 3,5-dichloro-4-(2-chloro-4-nitrophenoxy)-N-1H-indol-7-ylbenzenesulfonamide]
- APC Flag 8 pt [1]: +
- PAD Assay, A549 6 pt (A549 cells [2]): +
- Cell Titer-Aqueous, HELA 6 pt (HeLa cells [3]): +
- Cell Titer-Aqueous, A549 6 pt (A549 cells [4]): +
- PAD Assay, HELA 6 pt (HeLa cells [5]): +
